Consider four substances from patent US12492236B2, “Fusion proteins for the treatment of cardiometabolic diseases” (Shattuck Labs, Inc., priority 2022, dated 2025).

Entries after “also recorded” stand apart in the source; their conditions may differ. Where no end group is shown, it is not given here.

The target of one data set is T1, GIPR (Rattus norvegicus, UniProt P43219).
T1 construct: endogenous in cells; host or cells: rat INS-1 insulinoma cells (with cAMP-luciferase reporter / pGloSensor-22F biosensor)
T1 sequence (P43219 19-455): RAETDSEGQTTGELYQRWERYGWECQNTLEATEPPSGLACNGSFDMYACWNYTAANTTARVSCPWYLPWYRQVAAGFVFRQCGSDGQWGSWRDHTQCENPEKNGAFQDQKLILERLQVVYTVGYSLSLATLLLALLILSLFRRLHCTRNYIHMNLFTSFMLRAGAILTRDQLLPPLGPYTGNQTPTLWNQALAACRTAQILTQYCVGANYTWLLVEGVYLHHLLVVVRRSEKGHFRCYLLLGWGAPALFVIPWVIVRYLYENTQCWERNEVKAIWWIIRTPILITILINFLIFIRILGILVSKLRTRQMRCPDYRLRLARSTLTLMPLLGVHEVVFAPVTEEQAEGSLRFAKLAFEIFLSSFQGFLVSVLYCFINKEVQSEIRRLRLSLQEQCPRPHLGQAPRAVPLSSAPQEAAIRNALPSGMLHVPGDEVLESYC
The data set can be described thus: pGloSensor-22F cAMP biosensor assay for GIPR agonism and antagonism in rat INS-1 cells. The data set is classed as cell-based. Also noted: dose or concentration left out as unconfirmed. Conditions: mixed with GIP(Ag). The method, then: A series of GIP antagonist peptides were evaluated at blocking human GIP (hGIP) agonism and the induction of cAMP. Briefly, rat INS-1 cells having pGloSensor-22F (Promega) were constructed and used to evaluate GIPR agonism and antagonism. […] The conformational change leads to the activation of the luciferase enzyme, thereby allowing detection of activation of GIPR, which produces cAMP upon activation.
To assay for GIPR agonism, rat INS-1 cells having pGloSensor-22F biosensor were treated with increasing concentrations of GIP(Ag). Immediately after the addition, the luminescence of the cells was measured, normalized using the basal luminescence and plotted.
GIPR antagonism was measured as the inhibition of GIP(Ag)-induced activation of the cAMP-luciferase reporter gene in rat INS-1 cells having pGloSensor-22F biosensor. The following GIP derivatives accessed in this assay for GIPR antagonism: GIP(Ant 3-30), GIP(Ant 3-30NH2), (GIP(Ant 3-30) having amidated carboxy terminus), GIP(AntPro3), GIP(AntPro3NH2), GIP(Ant3-30, Pro3) and GIP(Ant3-30, Pro3NH2). Briefly, rat INS-1 cells having pGloSensor-22F were treated with increasing doses of the above various GIP derivatives, mixed with […] GIP(Ag). Immediately after the addition, the luminescence of the cells was measured, normalized using the basal luminescence and plotted.
The GIP(Ag) was re-evaluated across a broader concentration range. Rat INS-1 cells having pGloSensor-22F biosensor were treated with increasing concentrations of GIP(Ag). Immediately after the addition, the luminescence of the cells was measured, normalized using the basal luminescence and plotted.
The GIP(AntPro3) and GIP(AntPro3NH2) were re-evaluated across a broader concentration range. Briefly, rat INS-1 cells having pGloSensor-22F were treated with increasing doses of GIP(AntPro3) and GIP(AntPro3NH2), mixed with […] GIP(Ag). Immediately after the addition, the luminescence of the cells was measured, normalized using the basal luminescence and plotted.

Data set [1] has as its system HFD-fed mice (Male C57BL/6). The data set can be described thus: glucose tolerance test (GTT) model in HFD-fed mice. The data set is classed as in vivo. Here is the method: Cages were changed once, then changed once a week.
The mice administered the above treatment by i.v. injections. The mice were then fasted for 18 hours and administered a dose of 2 g/kg glucose by i.v. injections. Blood samples were drawn by tail clip bleeding at 15, 30 and 60 minutes post dosing and cardiac bleeding was used at 2 hours after glucose injection as end-point.

Data set [2] has as its system HFD-fed mice (Male C57BL/6). The data set can be described thus: longer-term obesity model in HFD-fed mice. Conditions: for blood glucose levels: Days 0, 1, 10 and 15, compared to the untreated mice, FIG. 8E; for liver histology: hepatocellular ballooning and steatosis: H&E, FIG. 8J; for plasma insulin levels on Day 1: between 15 and 120 minutes after treatment, one way ANOVA p<0.05, FIG. 8C left panel; for average daily food intake: compared to the untreated mice, FIG. 8D; for liver weight: livers of PBS control mice versus treated mice / subcutaneous white adipose tissue (sWAT) weight: day 19 necropsy; for liver weight: livers of PBS control mice versus treated mice: FIG. 8G; for subcutaneous white adipose tissue (sWAT) weight: versus PBS control, FIG. 8H; for tolerability: obesity model; for plasma insulin levels on Day 15: one way ANOVA p<0.0001, FIG. 8C right panel; for change in body weight: tail vein dosing Day 0, 4, 7, 10, 14, 18, FIG. 8A. From the text:
Briefly, mice (Male C57BL/6) were of approximately 13 weeks of age were housed 4 mice per cage. Following 2 weeks of acclimation, mice were introduced to 60% kcal HFD (Research Diets D12492). Cages were changed once, then changed once a week. Weekly body weights and non-fasted blood glucose were collected. […] The longer-term obesity model assesses a number of end points associated with obesity related type 2 diabetes (FIG. 6A).
Mice (Male C57BL/6) were of approximately 13 weeks of age were housed 4 mice per cage. Following 2 weeks of acclimatation, mice were introduced to 60% kcal HFD (Research Diets D12492). Cages were changed once, then changed once a week. Weekly body weights and non-fasted blood glucose were collected.
Mice were injected by tail vein with vehicle or the drugs on Day 0, Day 4, Day 7, Day 10, Day 14, and Day 18. Body weights were measured every 2 days. Change in body weight was calculated and plotted.
Cumulative food intake was measured between day 0 and 3, between day 4 and 7, between day 7 and day 11, and between day 11 and day 14, and represented as average daily food intake. For food consumption, remaining food was weighed on days 3, 8, and 15, and subtracted from the starting weight. This value was then normalized to the number of mice in the cage, and the number of days the mice had access to the food prior to weighing.
Blood glucose levels were measured on Days 0, 1, 10 and 15 and plotted.
On day 19 during terminal necropsy, liver and subcutaneous white adipose tissue were recovered weighed from treated animals.
To further analyze the changes in liver, histopathological analysis was conducted. Briefly, the liver tissue was stained with hematoxylin and eosin (H&E) and evaluated using standard techniques.

The mark [3] stands for this setting: broader concentration range, FIG. 5B.

As to “GIP(AntPro3NH2): GIP antagonist peptide GIP(AntPro3), presumably having amidated carboxy terminus (YAPGTFISDYSIAMDKIHQQDFVNWLLAQKGKKNDWKHNITQ-NH2)”, the figures for the “inhibition of GIP(Ag)-induced activation of the cAMP-luciferase reporter gene (GIPR antagonism)” value in the data set with GIPR (setting [3]) and with GIPR (FIG. 5A) were “dose-dependent inhibition of GIP(Ag)-induced activation” and “more potent inhibition of GIP agonist signaling than the others tested; also recorded: maximal level of a dose-dependent inhibition of GIP(Ag)-induced activation”, respectively.
Consider “GLP-1-Fc-GIP(AntPro3): GLP-1 fused to GIP antagonist peptide (amino acids 1-42 having E3P mutation) via IgG1 hinge-CH2-CH3 Fc domain; SEQ ID NO: 95”, for which, in data set [1] (FIG. 7C), the “serum insulin time course following glucose administration” value is recorded as “rapid induction of insulin”. Besides, the “serum glucose time course following glucose administration” value in data set [1] (i.v. treatment, 18 hours fast, 2 g/kg glucose, versus PBS control (200 to about 800 mg/dl), FIG. 7A) is reported as “much smaller increase in serum glucose”. Besides, the glucose tolerance result in data set [1] (summary of GTT model) is reported as “improved glucose tolerance”. In data set [2], the blood glucose levels entry is “decrease in blood glucose”; the “liver histology: hepatocellular ballooning and steatosis” value was “a decrease in hepatocellular ballooning and steatosis”; the “plasma insulin levels on Day 1” value was “rapid decrease in insulin levels”; the “average daily food intake” value was “decrease in food intake”. Also, in data set [2], the “liver weight: livers of PBS control mice versus treated mice” value was “much heavier compared to the mice receiving treatments”; the “subcutaneous white adipose tissue (sWAT) weight” value is listed as “decreased”; the tolerability result is “well tolerated and no overt toxicities were noted”; the “plasma insulin levels on Day 15” value is “significant decrease in the levels of insulin”. Besides, the “change in body weight” value in data set [2] is “progressive weight loss”. For the same substance, the “weights of individual mice” value in data set [2] (FIG. 8B) is “induced weight loss”. Also, in data set [2] (picrosirius red, FIG. 8I), the “decrease in liver collagen staining relative to tirzepatide or dulaglutide” value is “greater decrease in collagen staining” and the “liver collagen staining (fibrosis)” value is reported as “a decrease in collagen staining”.
For “GIP(AntPro3): GIP antagonist peptide, SEQ ID NO: 97 (YAPGTFISDYSIAMDKIHQQDFVNWLLAQKGKKNDWKHNITQ)”, the “inhibition of GIP(Ag)-induced activation of the cAMP-luciferase reporter gene (GIPR antagonism)” value was “dose-dependent inhibition of GIP(Ag)-induced activation” in the data set with GIPR (setting [3]) and “more potent inhibition of GIP agonist signaling than the others tested; also recorded: maximal level of a dose-dependent inhibition of GIP(Ag)-induced activation” in the data set with GIPR (FIG. 5A).
For dulaglutide [reference compound], in data set [2], the blood glucose levels entry is recorded as “decrease in blood glucose”; the “liver histology: hepatocellular ballooning and steatosis” value is “a decrease in hepatocellular ballooning and steatosis”; the “plasma insulin levels on Day 1” value is recorded as “rapid decrease in insulin levels”; the “average daily food intake” value is reported as “decrease in food intake”. Further, in data set [2], the “liver weight: livers of PBS control mice versus treated mice” value is “much heavier compared to the mice receiving treatments”; the “subcutaneous white adipose tissue (sWAT) weight” value is listed as “decreased”; the tolerability result is “well tolerated and no overt toxicities were noted”; the “plasma insulin levels on Day 15” value is recorded as “significant decrease in the levels of insulin”. In data set [2], the “change in body weight” value is recorded as “progressive weight loss”. Also, in data set [2] (picrosirius red, FIG. 8I), the “liver collagen staining (fibrosis)” value is “a decrease in collagen staining”.
